Experimental data as given in DBAASP.
Converted amounts (≈) assume the structure as drawn. Values belong to the molecule of their own block, whether it stands above or below them.

Tests used:
Test in all cases: ≥ marks a high value that may be exact or a test limit, other limits are often not marked, values filed in µg/mL are converted to µM
[1] = system: Escherichia coli ATCC 8739
[2] = system: Escherichia coli ATCC BAA-2340
[3] = system: Cutibacterium acnes ATCC 50247
[4] = system: Cutibacterium acnes ATCC 18380
[5] = system: Candida albicans ATCC 90028
[6] = system: Staphylococcus aureus ATCC 25923
[7] = system: Klebsiella pneumoniae ATCC 43816
[8] = system: Klebsiella pneumoniae ATCC BAA-1705
[9] = system: Staphylococcus aureus NCTC 12493
[10] = system: Enterococcus faecalis NCTC 12697
[11] = system: Pseudomonas aeruginosa ATCC 9027
[12] = system: Cutibacterium acnes ATCC 32548
[13] = system: Escherichia coli ATCC 25726
[14] = system: Candida albicans ATCC 10231
[15] = system: Staphylococcus aureus ATCC 6538
[16] = system: Pseudomonas aeruginosa B004 V2S2B
[17] = system: Cutibacterium acnes ATCC 29903
[18] = system: Cutibacterium acnes ATCC 33257
[19] = system: Cutibacterium acnes ATCC 31766
Staphylococcus aureus = system: Staphylococcus aureus
[20] = system: Cutibacterium acnes ATCC 11828
[21] = system: Cutibacterium acnes ATCC 15725
[22] = system: Vibrio anguillarum serotype O1
[23] = system: Yersinia enterocolitica BCRC 13999
[24] = system: Pseudomonas aeruginosa BCRC 10944
[25] = system: Vibrio parahaemolyticus BCRC 10806
[26] = system: Streptococcus equinus BCRC 14729
[27] = system: Escherichia coli BCRC 10675
[28] = system: Enterobacter cloacae BCRC 10401
Vibrio alginolyticus = system: Vibrio alginolyticus
[29] = system: Klebsiella aerogenes BCRC 10370
[30] = system: Staphylococcus aureus BCRC 10781
Lactococcus garvieae = system: Lactococcus garvieae
[31] = system: Staphylococcus xylosus BCRC 12930
Vibrio parahaemolyticus = system: Vibrio parahaemolyticus
[32] = system: Listeria monocytogenes BCRC 14845
Streptococcus iniae = system: Streptococcus iniae
[33] = system: Klebsiella oxytoca BCRC 13985
[34] = system: Staphylococcus aureus BCRC 10780
[35] = system: Vibrio alginolyticus BCRC 12829
Vibrio harveyi = system: Vibrio harveyi
[36] = system: Staphylococcus epidermidis LT1324
[37] = system: Pseudomonas aeruginosa ATCC 27853
[38] = system: Staphylococcus aureus II ATCC 6538P
[39] = system: Escherichia coli ATCC 25922
[40] = system: Acinetobacter baumannii ATCC 19606
Micrococcus luteus = system: Micrococcus luteus
Staphylococcus simulans = system: Staphylococcus simulans
Escherichia coli D21 = system: Escherichia coli D21
Escherichia coli K-12 = system: Escherichia coli K-12
[41] = system: Klebsiella pneumoniae CIP 8291
[42] = system: Lactococcus lactis subsp. cremoris I116
Escherichia coli L- = system: Escherichia coli L-
[43] = system: Staphylococcus aureus CIP 677
Listeria ivanovii LMA 94 = system: Listeria ivanovii LMA 94
[44] = system: Staphylococcus aureus USA 300

MIC [1]: 16 µM (≈ 50 µg/mL) | MIC [2]: ≥ 32 µM | MIC [3]: 6 µM (≈ 18.7 µg/mL) | MIC [4]: 12.5 µM (≈ 39 µg/mL) | MIC [5]: ≥ 64 µM | MIC [6]: 64 µM (≈ 200 µg/mL) | MIC [7]: ≥ 128 µM | MIC [8]: ≥ 512 µM | MIC [9]: ≥ 512 µM | MIC [10]: ≥ 512 µM | MIC [11]: 128 µM (≈ 400 µg/mL) | MIC [12]: 25 µM (≈ 78.1 µg/mL) | MIC [13]: ≥ 32 µM | MIC [14]: > 512 µM | MIC [15]: 32 µM (≈ 100 µg/mL) | MIC [16]: ≥ 512 µM | MIC [17]: 25 µM (≈ 78.1 µg/mL) | MIC [18]: 6 µM (≈ 18.7 µg/mL) | MIC [19]: 6 µM (≈ 18.7 µg/mL) | MIC (Staphylococcus aureus): > 512 µM | MIC [20]: 12.5 µM (≈ 39 µg/mL) | MIC [21]: 25 µM (≈ 78.1 µg/mL)
Structure (SMILES): CC[C@H](C)[C@H](NC(=O)[C@@H](NC(=O)CN)C(C)C)C(=O)N[C@H](C(=O)N[C@@H](CC(=O)O)C(=O)N[C@H](C(=O)N[C@@H](CC(C)C)C(=O)N[C@@H](CCCCN)C(=O)NCC(=O)N[C@@H](C)C(=O)N[C@@H](C)C(=O)N[C@@H](CCCCN)C(=O)N[C@H](C(=O)N[C@H](C(=O)N[C@@H](C)C(=O)N[C@@H](C)C(=O)N[C@@H](CCC(=O)O)C(=O)N[C@@H](CC(C)C)C(=O)N[C@@H](CC(C)C)C(=O)N[C@@H](CCCN=C(N)N)C(=O)N[C@@H](CCCCN)C(=O)N[C@@H](C)C(=O)N[C@@H](Cc1cnc[nH]1)C(=O)N[C@H]1CSSC[C@@H](C(=O)O)NC(=O)[C@H](CO)NC(=O)[C@H](CC(N)=O)NC(=O)[C@H]([C@@H](C)O)NC(=O)[C@H](CC(C)C)NC(=O)[C@H](CCCCN)NC1=O)C(C)C)[C@@H](C)O)[C@@H](C)O)[C@@H](C)CC [GVIIDTLKGAAKTVAAELLRKAHCKLTNSC]

MIC [22]: 1.75 µM (≈ 4 µg/mL) | MIC [23]: 14 µM (≈ 32 µg/mL) | MIC [24]: 14 µM (≈ 32 µg/mL) | MIC [26]: ≥ 56 µM | MIC [27]: 3.5 µM (≈ 8 µg/mL) | MIC [28]: 3.5 µM (≈ 8 µg/mL) | MIC (Vibrio alginolyticus): 1.75 µM (≈ 4 µg/mL) | MIC [29]: 7 µM (≈ 16 µg/mL) | MIC [30]: 14 µM (≈ 32 µg/mL) | MIC (Lactococcus garvieae): 14 µM (≈ 32 µg/mL) | MIC [31]: 3.5 µM (≈ 8 µg/mL) | MIC [32]: 7 µM (≈ 16 µg/mL) | MIC (Streptococcus iniae): 28 µM (≈ 64 µg/mL) | MIC [33]: 7 µM (≈ 16 µg/mL) | MIC [34]: 7 µM (≈ 16 µg/mL) | MIC [35]: ≥ 56 µM | MIC (Vibrio harveyi): 3.5 µM (≈ 8 µg/mL)
Structure (SMILES): CC(C)C[C@H](NC(=O)[C@H](C)NC(=O)[C@H](CC(N)=O)NC(=O)[C@H](C)NC(=O)[C@H](Cc1ccccc1)NC(=O)[C@H](CCCCN)NC(=O)[C@H](CCCCN)NC(=O)[C@H](C)NC(=O)[C@H](CC(C)C)NC(=O)[C@H](CC(N)=O)NC(=O)[C@H](C)NC(=O)[C@H](CC(C)C)NC(=O)[C@H](CCCCN)NC(=O)[C@H](CCCCN)NC(=O)[C@H](C)NC(=O)[C@H](Cc1ccc(O)cc1)NC(=O)[C@H](CC(N)=O)NC(=O)[C@H](Cc1ccc(O)cc1)NC(=O)CN)C(=O)N[C@@H](Cc1c[nH]c2ccccc12)C(=O)O [GYNYAKKLANLAKKFANALW]
MIC [25]: ≥ 56 µM | MIC (Vibrio parahaemolyticus): 1.75 µM (≈ 4 µg/mL)

MIC [36]: ≥ 32 µM | MIC [37]: > 50 µM | MIC [38]: ≥ 50 µM | MIC [39]: 50 µM (≈ 90.2 µg/mL) | MIC [40]: 50 µM (≈ 90.2 µg/mL) | MIC (Micrococcus luteus): 16 µM (≈ 28.9 µg/mL) | MIC (Staphylococcus simulans): ≥ 32 µM | MIC (Escherichia coli D21): ≥ 50 µM
Structure (SMILES): CC(C)C[C@H](NC(=O)[C@H](CC(C)C)NC(=O)[C@H](CC(C)C)NC(=O)[C@H](CC(C)C)NC(=O)[C@H](CC(C)C)NC(=O)[C@H](CC(C)C)NC(=O)[C@H](CC(C)C)NC(=O)[C@H](CC(C)C)NC(=O)[C@H](CC(C)C)NC(=O)[C@H](CCCCN)NC(=O)[C@H](CCCCN)NC(=O)[C@@H](N)CCCCN)C(=O)N[C@@H](CCCCN)C(=O)N[C@@H](CCCCN)C(=O)N[C@@H](CCCCN)C(N)=O [KKKLLLLLLLLLKKK]

Structure (SMILES): CC[C@H](C)[C@H](NC(=O)[C@H](CCCCN)NC(=O)CNC(=O)[C@H](CC(C)C)NC(=O)[C@@H](NC(=O)[C@H](C)NC(=O)[C@H](CCCCN)NC(=O)CNC(=O)[C@H](C)NC(=O)CNC(=O)[C@H](CCCCN)NC(=O)[C@@H](NC(=O)[C@H](CCCCN)NC(=O)[C@@H](NC(=O)[C@H](Cc1c[nH]c2ccccc12)NC(=O)[C@H](CC(C)C)NC(=O)[C@H](CCC(=O)O)NC(=O)[C@H](CCCCN)NC(=O)[C@H](CC(C)C)NC(=O)[C@@H](N)CC(C)C)[C@@H](C)O)[C@@H](C)CC)C(C)C)C(=O)N[C@@H](CCCCN)C(=O)NCC(=O)N[C@@H](CC(C)C)C(=O)N[C@@H](CC(C)C)C(=O)O [LLKELWTKIKGAGKAVLGKIKGLL]
MIC (Escherichia coli K-12): 25 µM (≈ 64.5 µg/mL) | MIC [41]: ≥ 32 µM | MIC [42]: 2 µM (≈ 5.16 µg/mL) | MIC (Escherichia coli L-): ≥ 64 µM | MIC [43]: ≥ 32 µM | MIC (Listeria ivanovii LMA 94): 4 µM (≈ 10.3 µg/mL) | MIC [44]: ≥ 85 µM
